Reference: PubChem BioAssay AID248 (DTP/NCI, 2004)
Values joined by “and” are separate entries in the source; they are usually repeats but may differ in a detail not shown here. Equal values may be shown once. Inconclusive results and toxic doses are left out. Cut-off read from the data, not from the text of the source: active = T/C of 150% or more; inactive = T/C below 125%.

Test system: L1210 leukemia ip in BDF1 mice, survival T/C
Experiment: NCI In Vivo Anticancer Drug Screen. Data for tumor model L1210 Leukemia (intraperitoneal) in B6D2F1 (BDF1) mice
Settings: endpoint: mean survival time, higher = longer survival
How it was run: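 In this screen, tumor-bearing mice given compound are compared to those given vehicle, and their survival values are reported as a treated-to-control quotient.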

[1] = dose: 100.0 mg/kg/injection, schedule: Q04DX003 (ip), vehicle: saline with Tween-80
[2] = dose: 200.0 mg/kg/injection, schedule: Q04DX003 (ip), vehicle: saline with Tween-80
[3] = dose: 400.0 mg/kg/injection, schedule: Q01DX009 (ip), vehicle: saline with Tween-80
[4] = dose: 400.0 mg/kg/injection, schedule: Q04DX003 (ip), vehicle: saline with Tween-80
[5] = dose: 100.0 mg/kg/injection, schedule: Q01DX001 (ip), vehicle: carboxymethylcellulose (CMC)
[6] = dose: 200.0 mg/kg/injection, schedule: Q01DX001 (ip), vehicle: carboxymethylcellulose (CMC)
[7] = dose: 400.0 mg/kg/injection, schedule: Q01DX001 (ip), vehicle: carboxymethylcellulose (CMC)
[8] = dose: 100.0 mg/kg/injection, schedule: Q04DX003 (ip), vehicle: saline
[9] = dose: 200.0 mg/kg/injection, schedule: Q04DX003 (ip), vehicle: saline
[10] = dose: 400.0 mg/kg/injection, schedule: Q04DX003 (ip), vehicle: saline
[11] = dose: 400.0 mg/kg/injection, schedule: Q01DX009 (ip), vehicle: Klucel (hydroxypropylcellulose) (HPC)

Measured: T/C

O=S(=O)(OCC1C2CCC1CC2)c1ccccc1 (configuration not stated)
inactive: dose: 100.0 mg/kg/injection, schedule: Q01DX009 (ip), vehicle: other 92 % of control | dose: 100.0 mg/kg/injection, schedule: Q04DX003 (ip), vehicle: other 104 % of control | dose: 200.0 mg/kg/injection, schedule: Q01DX009 (ip), vehicle: other 94 % of control | dose: 200.0 mg/kg/injection, schedule: Q04DX003 (ip), vehicle: other 94 % of control | dose: 400.0 mg/kg/injection, schedule: Q01DX009 (ip), vehicle: other 101 % of control | dose: 400.0 mg/kg/injection, schedule: Q04DX003 (ip), vehicle: other 89 % of control

COc1cccc2sc3ccccc3c(=O)c12
inactive: dose: 100.0 mg/kg/injection, schedule: Q01DX009 (ip), vehicle: saline with Tween-80 102 % of control | [1] 101 % of control | dose: 200.0 mg/kg/injection, schedule: Q01DX009 (ip), vehicle: saline with Tween-80 86 % of control | [2] 102 % of control | [3] 87 % of control | [4] 87 % of control

O=C(Nc1ccc(Cl)cc1)O/N=C/c1ccccn1
inactive: dose: 12.5 mg/kg/injection, schedule: Q01DX009 (ip), vehicle: saline with Tween-80 111 % of control | dose: 25.0 mg/kg/injection, schedule: Q01DX009 (ip), vehicle: saline with Tween-80 97 % of control | dose: 50.0 mg/kg/injection, schedule: Q01DX009 (ip), vehicle: saline with Tween-80 94 % of control | dose: 100.0 mg/kg/injection, schedule: Q01DX001 (ip), vehicle: saline with Tween-80 97 % of control | dose: 200.0 mg/kg/injection, schedule: Q01DX001 (ip), vehicle: saline with Tween-80 109 % of control | dose: 400.0 mg/kg/injection, schedule: Q01DX001 (ip), vehicle: saline with Tween-80 101 % of control | [3] 88 % of control

OCC(Cc1ccc(Cl)cc1)N1CCCCC1 (configuration not stated)
inactive: [5] 96 % of control | [6] 100 % of control | [7] 89 % of control

CC(=O)NC1CCc2ccccc2-c2cccc(=O)cc21 (configuration not stated)
inactive: dose: 0.1 mg/kg/injection, schedule: Q01DX009 (ip), vehicle: Klucel (hydroxypropylcellulose) (HPC) 108 % of control | dose: 0.2 mg/kg/injection, schedule: Q01DX009 (ip), vehicle: Klucel (hydroxypropylcellulose) (HPC) 113 % of control and 124 % of control | dose: 0.39 mg/kg/injection, schedule: Q01DX009 (ip), vehicle: Klucel (hydroxypropylcellulose) (HPC) 118 % of control | dose: 0.78 mg/kg/injection, schedule: Q01DX009 (ip), vehicle: Klucel (hydroxypropylcellulose) (HPC) 86 % of control | dose: 0.78 mg/kg/injection, schedule: Q01DX009 (ip), vehicle: saline 116 % of control

O=[N+]([O-])c1ccc2scnc2c1
inactive: dose: 100.0 mg/kg/injection, schedule: Q01DX001 (ip), vehicle: acetone 98 % of control | dose: 100.0 mg/kg/injection, schedule: Q04DX003 (ip), vehicle: acetone 107 % of control | dose: 200.0 mg/kg/injection, schedule: Q01DX001 (ip), vehicle: acetone 92 % of control | dose: 200.0 mg/kg/injection, schedule: Q04DX003 (ip), vehicle: acetone 89 % of control | dose: 400.0 mg/kg/injection, schedule: Q01DX001 (ip), vehicle: acetone 95 % of control | dose: 400.0 mg/kg/injection, schedule: Q04DX003 (ip), vehicle: acetone 96 % of control

COC(=O)N1C(c2ccc(OC)cc2)CS1(=O)=O (configuration not stated)
inactive: dose: 75.0 mg/kg/injection, schedule: Q04DX003 (ip), vehicle: Klucel (hydroxypropylcellulose) (HPC) 101 % of control | dose: 100.0 mg/kg/injection, schedule: Q01DX001 (ip), vehicle: Klucel (hydroxypropylcellulose) (HPC) 97 % of control | dose: 150.0 mg/kg/injection, schedule: Q04DX003 (ip), vehicle: Klucel (hydroxypropylcellulose) (HPC) 98 % of control | dose: 200.0 mg/kg/injection, schedule: Q01DX001 (ip), vehicle: Klucel (hydroxypropylcellulose) (HPC) 102 % of control | dose: 300.0 mg/kg/injection, schedule: Q04DX003 (ip), vehicle: Klucel (hydroxypropylcellulose) (HPC) 116 % of control | dose: 400.0 mg/kg/injection, schedule: Q01DX001 (ip), vehicle: Klucel (hydroxypropylcellulose) (HPC) 97 % of control

CCOC(=O)CN1CCC(C(=O)OC)CC1
inactive: dose: 100.0 mg/kg/injection, schedule: Q01DX009 (ip), vehicle: saline 96 % of control | [8] 112 % of control | dose: 200.0 mg/kg/injection, schedule: Q01DX009 (ip), vehicle: saline 98 % of control | [9] 124 % of control | dose: 400.0 mg/kg/injection, schedule: Q01DX009 (ip), vehicle: saline 112 % of control | [10] 96 % of control

OCCNCCc1ccccc1
inactive: dose: 75.0 mg/kg/injection, schedule: Q01DX009 (ip), vehicle: carboxymethylcellulose (CMC) 104 % of control | dose: 150.0 mg/kg/injection, schedule: Q01DX009 (ip), vehicle: carboxymethylcellulose (CMC) 107 % of control

CCCCCCCCCCCCCSc1ccc(Br)cc1
inactive: [1] 96 % of control | [2] 96 % of control | [4] 96 % of control

c1ccc(C2OCCCO2)cc1
inactive: dose: 12.5 mg/kg/injection, schedule: Q01DX009 (ip), vehicle: Klucel (hydroxypropylcellulose) (HPC) 92 % of control | dose: 25.0 mg/kg/injection, schedule: Q01DX009 (ip), vehicle: Klucel (hydroxypropylcellulose) (HPC) 100 % of control | [11] 87 % of control

O=C(Cc1ccccc1)OC1CC2CC1C1CCCC21 (configuration not stated)
inactive: dose: 50.0 mg/kg/injection, schedule: Q01DX001 (ip), vehicle: carboxymethylcellulose (CMC) 96 % of control | [5] 98 % of control | [6] 104 % of control | [7] 96 % of control

O=C(Nc1cccc(C(F)(F)F)c1)Nc1cc([N+](=O)[O-])ccc1Cl
inactive: dose: 50.0 mg/kg/injection, schedule: Q01DX009 (ip), vehicle: Klucel (hydroxypropylcellulose) (HPC) 96 % of control | dose: 100.0 mg/kg/injection, schedule: Q01DX009 (ip), vehicle: Klucel (hydroxypropylcellulose) (HPC) 97 % of control and 108 % of control | dose: 200.0 mg/kg/injection, schedule: Q01DX009 (ip), vehicle: Klucel (hydroxypropylcellulose) (HPC) 89 % of control | [11] 88 % of control

CCCCCCCCCCCC(c1ccccc1)[N+](C)(C)Cc1ccccc1 (configuration not stated)
inactive: dose: 0.25 mg/kg/injection, schedule: Q01DX015 (ip), vehicle: saline 108 % of control | dose: 0.5 mg/kg/injection, schedule: Q01DX015 (ip), vehicle: saline 103 % of control | dose: 1.0 mg/kg/injection, schedule: Q01DX015 (ip), vehicle: saline 115 % of control | dose: 2.0 mg/kg/injection, schedule: Q01DX015 (ip), vehicle: saline 114 % of control | dose: 2.5 mg/kg/injection, schedule: Q01DX001 (ip), vehicle: carboxymethylcellulose (CMC) 93 % of control

O=C1NC2(CCCCC2)C(=O)N1CCCl
inactive: dose: 50.0 mg/kg/injection, schedule: Q04DX003 (ip), vehicle: saline 101 % of control | [8] 109 % of control | [9] 106 % of control | [10] 101 % of control

CC(=O)C1(O)CCC2C3CC=C4CC(O)CCC4(C)C3CCC21C (configuration not stated)
inactive: [5] 102 % of control | dose: 100.0 mg/kg/injection, schedule: Q01DX009 (ip), vehicle: carboxymethylcellulose (CMC) 87 % of control and 90 % of control | dose: 100.0 mg/kg/injection, schedule: Q04DX002 (ip), vehicle: carboxymethylcellulose (CMC) 98 % of control and 100 % of control | dose: 100.0 mg/kg/injection, schedule: Q04DX003 (ip), vehicle: carboxymethylcellulose (CMC) 97 % of control | [6] 94 % of control | dose: 200.0 mg/kg/injection, schedule: Q01DX009 (ip), vehicle: carboxymethylcellulose (CMC) 96 % of control and 97 % of control | dose: 200.0 mg/kg/injection, schedule: Q04DX002 (ip), vehicle: carboxymethylcellulose (CMC) 100 % of control and 110 % of control | dose: 200.0 mg/kg/injection, schedule: Q04DX003 (ip), vehicle: carboxymethylcellulose (CMC) 98 % of control | [7] 98 % of control | dose: 400.0 mg/kg/injection, schedule: Q01DX009 (ip), vehicle: carboxymethylcellulose (CMC) 93 % of control and 94 % of control | dose: 400.0 mg/kg/injection, schedule: Q04DX002 (ip), vehicle: carboxymethylcellulose (CMC) 97 % of control and 100 % of control | dose: 400.0 mg/kg/injection, schedule: Q04DX003 (ip), vehicle: carboxymethylcellulose (CMC) 88 % of control
